In PMC5415608, “The Effects of Herbicides Targeting Aromatic and Branched Chain Amino Acid Biosynthesis Support the Presence of Functional Pathways in Broomrape” (Frontiers in Plant Science, 2017):

Experiments:
[1] = test system: T1, EPSPS (P. aegyptiaca 5-enolpyruvylshikimate-3-phosphate synthase); assay: colorimetric phosphate release assay ([…] nm), partially purified extract; format: biochemical, Phelipanche aegyptiaca; settings: callus enzyme; 1 mM shikimate-3-phosphate (natural substrate), 0.1 mM phosphoenolpyruvate, 500 mM MES pH 5.5, 2 mM DTT, 30°C, 15 min; read-out: ID50 (the source's name)
T1 construct: single gene copy found; predicted 64-residue chloroplast transit peptide

[2] = test system: T2, ALS (P. aegyptiaca acetolactate synthase); assay: colorimetric acetoin assay (creatine/alpha-naphthol, […] nm), partially purified extract; format: biochemical, Phelipanche aegyptiaca; settings: flowering shoot enzyme; 167 mM pyruvate, 16.7 mM MgCl2, 1.67 mM TPP, 16.6 μM FAD, pH 7.0, 37°C, 60 min; read-out: ID50 (the source's name)
T2 construct: single gene copy found; predicted 42-residue chloroplast transit peptide

[3] = test system: T3, ALS from young tomato leaves; assay: as above; format: biochemical, Solanum lycopersicum; settings: young leaf enzyme; 167 mM pyruvate, 16.7 mM MgCl2, 1.67 mM TPP, 16.6 μM FAD, pH 7.0, 37°C, 60 min; read-out: ID50 (the source's name)
T3 construct: gene ALS1; native, partially purified extract of young tomato leaves

**Q.** `O=C(O)CNCP(=O)(O)O` [glyphosate] was tested. Which IC50 [1] did it give?
**A.** ~8000 nM

**Q.** For `CCS(=O)(=O)c1cccnc1S(=O)(=O)NC(=O)Nc1nc(OC)cc(OC)n1` [rimsulfuron], which IC50 [2] is on record?
**A.** 110 ± 30 nM

**Q.** Which IC50 [2] does the source give for `CC(C)C1(C)N=C(c2ncccc2C(=O)O)NC1=O` (centres unmarked) [imazapyr] here?
**A.** 11600 ± 1200 nM

**Q.** What does the source list for `Cc1cnc(C2=NC(C)(C(C)C)C(=O)N2)c(C(=O)O)c1` (centres unmarked) [imazapic]?
**A.** IC50 [2]: 2070 ± 70 nM; IC50 [3]: ~470 nM
